{
  "source": "patent US20020137929A1",
  "about": "“1 - (3-heterocyclylphenyl) isothiourea, -isourea, -guanidine and -amidine herbicidal agents” (Intellectual Property Department, BASF Aktiengesellschaft, priority 1998, published 2002)",
  "key": {"[1]": {"tested_on": "CYPSE (Flatsedge)", "assay": "Preemergence weed control under flooded paddy conditions", "format": "in vivo, Cyperus serotinus", "settings": "rated 3-4 weeks after treatment", "outline": "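Values are visual 0-9 scores against a control for a preemergence application into paddy flood water at about 0.0313 to 0.500 kg/ha. Greenhouse duration was three to four weeks.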"}, "[2]": {"tested_on": "ECHORC (Watergrass (Calif.))", "assay": "Preemergence weed control under flooded paddy conditions", "format": "in vivo, Echinochloa oryzoides", "settings": "rated 3-4 weeks after treatment", "outline": "(§1)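 Ratings on a 0-9 visual scale cover stand, vigor, malformation, size, chlorosis and overall appearance relative to a control, taken three to four weeks post-treatment. Application was into flood water over freshly sown silt loam at roughly 0.0313 to 0.500 kg/ha.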"}, "[3]": {"tested_on": "ECHORC (Watergrass (Calif.))", "assay": "Postemergence weed control under flooded paddy conditions", "format": "in vivo, Echinochloa oryzoides", "settings": "postemergence weeds, rated 3 to 4 weeks after treatment", "outline": "(§2)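 Herbicidal effect is judged by eye on a 0–9 scale versus control, 3–4 weeks after dosing. Dosing is into flood water kept 1.5–3 cm over the soil, at about 0.0313–0.500 kg/ha in aqueous/acetone 50/50 v/v, on 3–5 cm weeds and 1.5–2.5-leaf rice seedlings.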"}, "[4]": {"tested_on": "CYPSE (Flatsedge)", "assay": "Postemergence weed control under flooded paddy conditions", "format": "in vivo, Cyperus serotinus", "settings": "postemergence weeds, rated 3 to 4 weeks after treatment", "outline": "as §2"}, "[5]": {"tested_on": "GALAP (Galium)", "assay": "Postemergence herbicidal evaluation", "format": "in vivo, Galium aparine", "settings": "postemergence", "outline": "(§3)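 ~2-wk seedlings; postemergence spray, 40 psi; vehicle 1:1 acetone:water + 0.5% Tween 20; rate ≈0.0156–0.500 kg/ha; greenhouse hold; scored 4–5 wk after treatment, 0–9 scale vs control; repeat tests averaged.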"}, "[6]": {"tested_on": "CYPIR (Rice Flatsedge)", "assay": "Preemergence weed control under flooded paddy conditions", "format": "in vivo, Cyperus iria", "settings": "rated 3-4 weeks after treatment", "outline": "as §1"}, "[7]": {"tested_on": "ZEAMX (Corn, Field)", "assay": "Preemergence herbicidal evaluation", "format": "in vivo, Zea mays", "settings": "preemergence, rated 4-5 weeks after treatment, 0-9 scale", "outline": "(§4)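 Herbicidal effect scored visually, 0-9, at 4 to 5 weeks against a control; compound applied preemergence by aqueous acetone spray to seeded soil at about 0.0156 to 0.500 kg/ha.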"}, "[8]": {"tested_on": "TRZAWR (Wheat, Winter, cv Riband)", "assay": "Preemergence herbicidal evaluation", "format": "in vivo, Triticum aestivum", "settings": "preemergence, rated 4-5 weeks after treatment, 0-9 scale", "outline": "as §4"}, "[9]": {"tested_on": "AMBEL (Ragweed, Common)", "assay": "Preemergence herbicidal evaluation", "format": "in vivo, Ambrosia artemisifolia", "settings": "preemergence, rated 4-5 weeks after treatment, 0-9 scale", "outline": "as §4"}, "[10]": {"tested_on": "IPOHE (Morningglory, Ivyleaf)", "assay": "Preemergence herbicidal evaluation", "format": "in vivo, Ipomoea hederacea", "settings": "preemergence, rated 4-5 weeks after treatment, 0-9 scale", "outline": "as §4"}, "[11]": {"tested_on": "ORYSAT (Rice, Tebonnet)", "assay": "Preemergence herbicidal evaluation", "format": "in vivo, Oryza sativa, (L.) Tebonnet", "settings": "preemergence, rated 4-5 weeks after treatment, 0-9 scale", "outline": "as §4"}, "[12]": {"tested_on": "CASOB (Sicklepod)", "assay": "Postemergence herbicidal evaluation", "format": "in vivo, Cassia obtusifolia", "settings": "postemergence", "outline": "as §3"}, "[13]": {"tested_on": "CHEAL (Lambsquarters, Common)", "assay": "Preemergence herbicidal evaluation", "format": "in vivo, Chenopodium album", "settings": "preemergence, rated 4-5 weeks after treatment, 0-9 scale", "outline": "as §4"}, "[14]": {"tested_on": "ZEAMX (Corn, Field)", "assay": "Postemergence herbicidal evaluation", "format": "in vivo, Zea mays", "settings": "postemergence", "outline": "as §3"}},
  "data": [
    {"smiles": "CCOC(=O)CN1C(=O)C(CC(=O)NS(=O)(=O)c2ccccc2)SC1=Nc1cc(-n2c(=O)cc(C(F)(F)F)n(C)c2=O)c(F)cc1Cl", "note": "(centres unmarked) [Compound 100, Ethyl 2-{{2-chloro-5-[3,6-dihydro-3-methyl-2,6-dioxo-4-(trifluoromethyl)-1(2H)-pyrimidinyl]-4-fluorophenyl}imino}-4-oxo-5-{[(phenylsulfonyl)-carbamoyl]methyl]-3-thiazolidineacetate]", "values": [
      {"measurement": "CYPSE herbicidal effect rating", "setting": "[1]; 0.0313 kg/ha", "value": 0.0},
      {"measurement": "CYPSE herbicidal effect rating", "setting": "[1]; 0.0625 kg/ha", "value": 0.0},
      {"measurement": "CYPSE herbicidal effect rating", "setting": "[1]; 0.1250 kg/ha", "value": 0.0},
      {"measurement": "CYPSE herbicidal effect rating", "setting": "[1]; 0.2500 kg/ha", "value": 0.0},
      {"measurement": "ECHORC herbicidal effect rating", "setting": "[2]; 0.0313 kg/ha", "value": 0.0},
      {"measurement": "ECHORC herbicidal effect rating", "setting": "[2]; 0.0625 kg/ha", "value": 0.0},
      {"measurement": "ECHORC herbicidal effect rating", "setting": "[2]; 0.1250 kg/ha", "value": 0.0},
      {"measurement": "ECHORC herbicidal effect rating", "setting": "[2]; 0.2500 kg/ha", "value": 3.0},
      {"measurement": "ECHORC herbicidal effect rating", "setting": "[2]; 0.5000 kg/ha", "value": 4.0},
      {"measurement": "Herbicidal rating ECHORC", "setting": "[3]; Rate 0.0313 kg/ha", "value": 0.0},
      {"measurement": "Herbicidal rating ECHORC", "setting": "[3]; Rate 0.0625 kg/ha", "value": 0.0},
      {"measurement": "Herbicidal rating ECHORC", "setting": "[3]; Rate 0.1250 kg/ha", "value": 0.0},
      {"measurement": "Herbicidal rating ECHORC", "setting": "[3]; Rate 0.2500 kg/ha", "value": 3.0},
      {"measurement": "Herbicidal rating ECHORC", "setting": "[3]; Rate 0.5000 kg/ha", "value": 4.0},
      {"measurement": "Herbicidal rating CYPSE", "setting": "[4]; Rate 0.0313 kg/ha", "value": 0.0},
      {"measurement": "Herbicidal rating CYPSE", "setting": "[4]; Rate 0.0625 kg/ha", "value": 0.0},
      {"measurement": "Herbicidal rating CYPSE", "setting": "[4]; Rate 0.1250 kg/ha", "value": 0.0},
      {"measurement": "Herbicidal rating CYPSE", "setting": "[4]; Rate 0.2500 kg/ha", "value": 0.0},
      {"measurement": "herbicidal rating GALAP", "setting": "[5]; rate 0.0156 kg/ha", "value": 1.0},
      {"measurement": "herbicidal rating GALAP", "setting": "[5]; rate 0.0313 kg/ha", "value": 2.0},
      {"measurement": "herbicidal rating GALAP", "setting": "[5]; rate 0.0625 kg/ha", "value": 3.0},
      {"measurement": "herbicidal rating GALAP", "setting": "[5]; rate 0.1250 kg/ha", "value": 3.0},
      {"measurement": "CYPIR herbicidal effect rating", "setting": "[6]; 0.0313 kg/ha", "value": 0.0},
      {"measurement": "CYPIR herbicidal effect rating", "setting": "[6]; 0.0625 kg/ha", "value": 0.0},
      {"measurement": "CYPIR herbicidal effect rating", "setting": "[6]; 0.1250 kg/ha", "value": 0.0},
      {"measurement": "CYPIR herbicidal effect rating", "setting": "[6]; 0.2500 kg/ha", "value": 4.0},
      {"measurement": "CYPIR herbicidal effect rating", "setting": "[6]; 0.5000 kg/ha", "value": 9.0},
      {"measurement": "ZEAMX rating", "setting": "[7]; 0.0313 kg/ha", "value": 0.0},
      {"measurement": "ZEAMX rating", "setting": "[7]; 0.0625 kg/ha", "value": 0.0},
      {"measurement": "ZEAMX rating", "setting": "[7]; 0.1250 kg/ha", "value": 0.0},
      {"measurement": "ZEAMX rating", "setting": "[7]; 0.2500 kg/ha", "value": 0.0},
      {"measurement": "ZEAMX rating", "setting": "[7]; 0.5000 kg/ha", "value": 1.0},
      {"measurement": "TRZAWR rating", "setting": "[8]; 0.0313 kg/ha", "value": 0.0},
      {"measurement": "TRZAWR rating", "setting": "[8]; 0.0625 kg/ha", "value": 0.0},
      {"measurement": "TRZAWR rating", "setting": "[8]; 0.1250 kg/ha", "value": 1.0},
      {"measurement": "TRZAWR rating", "setting": "[8]; 0.2500 kg/ha", "value": 0.0},
      {"measurement": "TRZAWR rating", "setting": "[8]; 0.5000 kg/ha", "value": 1.0},
      {"measurement": "AMBEL rating", "setting": "[9]; 0.0313 kg/ha", "value": 0.0},
      {"measurement": "AMBEL rating", "setting": "[9]; 0.0625 kg/ha", "value": 0.0},
      {"measurement": "AMBEL rating", "setting": "[9]; 0.1250 kg/ha", "value": 1.0},
      {"measurement": "AMBEL rating", "setting": "[9]; 0.2500 kg/ha", "value": 1.0},
      {"measurement": "AMBEL rating", "setting": "[9]; 0.5000 kg/ha", "value": 7.0},
      {"measurement": "IPOHE rating", "setting": "[10]; 0.0313 kg/ha", "value": 1.0},
      {"measurement": "IPOHE rating", "setting": "[10]; 0.0625 kg/ha", "value": 0.0},
      {"measurement": "IPOHE rating", "setting": "[10]; 0.1250 kg/ha", "value": 0.0},
      {"measurement": "IPOHE rating", "setting": "[10]; 0.2500 kg/ha", "value": 2.0},
      {"measurement": "IPOHE rating", "setting": "[10]; 0.5000 kg/ha", "value": 5.0},
      {"measurement": "ORYSAT rating", "setting": "[11]; 0.0313 kg/ha", "value": 0.0},
      {"measurement": "ORYSAT rating", "setting": "[11]; 0.0625 kg/ha", "value": 0.0},
      {"measurement": "ORYSAT rating", "setting": "[11]; 0.1250 kg/ha", "value": 0.0},
      {"measurement": "ORYSAT rating", "setting": "[11]; 0.2500 kg/ha", "value": 0.0},
      {"measurement": "ORYSAT rating", "setting": "[11]; 0.5000 kg/ha", "value": 1.0},
      {"measurement": "herbicidal rating CASOB", "setting": "[12]; rate 0.0156 kg/ha", "value": 2.0},
      {"measurement": "herbicidal rating CASOB", "setting": "[12]; rate 0.0313 kg/ha", "value": 7.0},
      {"measurement": "herbicidal rating CASOB", "setting": "[12]; rate 0.0625 kg/ha", "value": 6.0},
      {"measurement": "herbicidal rating CASOB", "setting": "[12]; rate 0.1250 kg/ha", "value": 9.0},
      {"measurement": "CHEAL rating", "setting": "[13]; 0.0313 kg/ha", "value": 9.0},
      {"measurement": "CHEAL rating", "setting": "[13]; 0.0625 kg/ha", "value": 9.0},
      {"measurement": "CHEAL rating", "setting": "[13]; 0.1250 kg/ha", "value": 9.0},
      {"measurement": "CHEAL rating", "setting": "[13]; 0.2500 kg/ha", "value": 9.0},
      {"measurement": "CHEAL rating", "setting": "[13]; 0.5000 kg/ha", "value": 9.0},
      {"measurement": "herbicidal rating ZEAMX", "setting": "[14]; rate 0.0156 kg/ha", "value": 4.5},
      {"measurement": "herbicidal rating ZEAMX", "setting": "[14]; rate 0.0313 kg/ha", "value": 5.0},
      {"measurement": "herbicidal rating ZEAMX", "setting": "[14]; rate 0.0625 kg/ha", "value": 5.0},
      {"measurement": "herbicidal rating ZEAMX", "setting": "[14]; rate 0.1250 kg/ha", "value": 5.0}
    ]}
  ]
}
